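Where inhibition never reached the appropriate level, the endpoint shown equals the highest concentration tested. Otherwise, values were interpolated linearly from a five-concentration, 48-hour dose response in 96-well plates. The concentration for 50% growth inhibition is given as GI50.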 Calls of active or inactive are those of the source. Cut-off read from the data, not from the text of the source: active = GI50 up to about 1.1 µM and inactive = higher. Where a SMILES comes first, the peptide text is derived from it. [ ]: non-standard residue; d: D form. pGlu = O=C1CC[CH](C(=O)O)N1
What was measured:
Experiment in all cases: DTP human tumour cell line panel, 48 h
HCT-15 = system: HCT-15
HOP-62 = system: HOP-62
IGROV-1 = system: IGROV-1
M14 = system: M14
MDA-MB-231 = system: MDA-MB-231
MDA-MB-435 = system: MDA-MB-435
NCI-H226 = system: NCI-H226
OVCAR-8 = system: OVCAR-8
RXF 393 = system: RXF 393
SK-MEL-2 = system: SK-MEL-2
SK-OV-3 = system: SK-OV-3
SW-620 = system: SW-620
T47D = system: T47D
UACC-257 = system: UACC-257
UO-31 = system: UO-31
CCRF-CEM = system: CCRF-CEM
Malme-3M = system: Malme-3M
NCI-H460 = system: NCI-H460
NCI-H522 = system: NCI-H522
SF-539 = system: SF-539

Structure (SMILES)	GI50 (HCT-15) [µM]	GI50 (HOP-62)	GI50 (IGROV-1)	GI50 (M14)	GI50 (MDA-MB-231)	GI50 (MDA-MB-435)	GI50 (NCI-H226)	GI50 (OVCAR-8)	GI50 (RXF 393)	GI50 (SK-MEL-2)	GI50 (SK-OV-3)	GI50 (SW-620)	GI50 (T47D)	GI50 (UACC-257)	GI50 (UO-31)	GI50 (CCRF-CEM)	GI50 (Malme-3M)	GI50 (NCI-H460)	GI50 (NCI-H522)	GI50 (SF-539)
Cc1ccc(/N=N/c2c(O)ccc3ccccc23)c(C)c1	> 100	> 100 µM (inactive)	> 100 µM (inactive)	> 100 µM (inactive)	> 100 µM (inactive)	> 100 µM (inactive)	> 100 µM (inactive)	> 100 µM (inactive)	> 100 µM (inactive)	> 100 µM (inactive)	> 100 µM (inactive)	> 100 µM (inactive)	> 100 µM (inactive)	> 100 µM (inactive)	> 100 µM (inactive)	–	–	–	–	–
Cc1ccc(S(=O)(=O)N2CCC[C@@H]2C(=O)O[C@@H]2CCC3CC=CC32)cc1 (some centres not stated)	32.7	29.9 µM (inactive)	39.9 µM (inactive)	34.6 µM (inactive)	45.9 µM (inactive)	35.1 µM (inactive)	19.9 µM (inactive)	34.4 µM (inactive)	20 µM (inactive)	–	22.2 µM (inactive)	40.3 µM (inactive)	20.9 µM (inactive)	22.2 µM (inactive)	13.6 µM (inactive)	24.8 µM (inactive)	24.5 µM (inactive)	35.6 µM (inactive)	18.9 µM (inactive)	44.5 µM (inactive)
Cc1cn(C(Cc2ccccc2)OCCO)c(=O)[nH]c1=O (configuration not stated)	> 100	> 100 µM (inactive)	> 100 µM (inactive)	> 100 µM (inactive)	> 100 µM (inactive)	> 100 µM (inactive)	> 100 µM (inactive)	> 100 µM (inactive)	> 100 µM (inactive)	> 100 µM (inactive)	–	> 100 µM (inactive)	> 100 µM (inactive)	> 100 µM (inactive)	> 100 µM (inactive)	> 100 µM (inactive)	–	> 100 µM (inactive)	–	> 100 µM (inactive)
N#Cc1c2c(c(N3CCOCC3)n3c1nc1ccccc13)CCCC2	17.8	–	16.6 µM (inactive)	21.5 µM (inactive)	21.3 µM (inactive)	20.2 µM (inactive)	14 µM (inactive)	19.2 µM (inactive)	–	16.5 µM (inactive)	22.6 µM (inactive)	14.4 µM (inactive)	19.2 µM (inactive)	29.2 µM (inactive)	18.4 µM (inactive)	2.75 µM (inactive)	17.7 µM (inactive)	23.7 µM (inactive)	16.3 µM (inactive)	19.1 µM (inactive)
O=C1C=C(N2CCN(c3ncccn3)CC2)C(=O)c2c(O)ccc(O)c21	> 100	49.2 µM (inactive)	> 100 µM (inactive)	> 100 µM (inactive)	> 100 µM (inactive)	7.21 µM (inactive)	> 100 µM (inactive)	> 100 µM (inactive)	–	–	> 100 µM (inactive)	> 100 µM (inactive)	> 100 µM (inactive)	> 100 µM (inactive)	> 100 µM (inactive)	> 100 µM (inactive)	6.35 µM (inactive)	> 100 µM (inactive)	> 100 µM (inactive)	21.6 µM (inactive)
CN(C)CCCNc1ccc([N+](=O)[O-])c2nc3ccccc3c(N)c12	0.423	2.36 µM (inactive)	0.659 µM (active)	0.7 µM (active)	0.598 µM (active)	0.718 µM (active)	5.14 µM (inactive)	0.483 µM (active)	0.736 µM (active)	1.38 µM (inactive)	0.228 µM (active)	0.22 µM (active)	0.914 µM (active)	1.63 µM (inactive)	0.942 µM (active)	0.243 µM (active)	0.51 µM (active)	0.352 µM (active)	–	0.449 µM (active)
CCOC(=O)NNC(=O)C1CSC(c2ccccc2)N1C(C)=O (configuration not stated)	> 100	> 100 µM (inactive)	> 100 µM (inactive)	> 100 µM (inactive)	> 100 µM (inactive)	> 100 µM (inactive)	> 100 µM (inactive)	> 100 µM (inactive)	–	> 100 µM (inactive)	> 100 µM (inactive)	> 100 µM (inactive)	> 100 µM (inactive)	> 100 µM (inactive)	> 100 µM (inactive)	> 100 µM (inactive)	> 100 µM (inactive)	> 100 µM (inactive)	> 100 µM (inactive)	> 100 µM (inactive)
Brc1ccc(-c2nc(-c3ccc(Br)cc3)n(-c3ccccc3)n2)cc1	> 100	> 100 µM (inactive)	> 100 µM (inactive)	> 100 µM (inactive)	> 100 µM (inactive)	46.7 µM (inactive)	> 100 µM (inactive)	> 100 µM (inactive)	–	> 100 µM (inactive)	> 100 µM (inactive)	> 100 µM (inactive)	12.9 µM (inactive)	81.1 µM (inactive)	> 100 µM (inactive)	20.6 µM (inactive)	–	> 100 µM (inactive)	39 µM (inactive)	> 100 µM (inactive)
COc1cc(C(=O)O[C@@H]2[C@@H](OC(=O)c3cc(OC)c(OC)c(OC)c3)[C@@H](OC)O[C@@H]3CO[C@@H](c4ccccc4)O[C@@H]23)cc(OC)c1OC	> 100	> 100 µM (inactive)	> 100 µM (inactive)	> 100 µM (inactive)	> 100 µM (inactive)	> 100 µM (inactive)	> 100 µM (inactive)	> 100 µM (inactive)	–	> 100 µM (inactive)	> 100 µM (inactive)	> 100 µM (inactive)	> 100 µM (inactive)	> 100 µM (inactive)	> 100 µM (inactive)	> 100 µM (inactive)	> 100 µM (inactive)	> 100 µM (inactive)	> 100 µM (inactive)	> 100 µM (inactive)
COc1c(OC)c(OC)c(C(=O)/C=C/c2ccccc2)c(OC)c1OC	10.6	–	11.3 µM (inactive)	12 µM (inactive)	14.5 µM (inactive)	5.06 µM (inactive)	8.05 µM (inactive)	10.3 µM (inactive)	–	12.6 µM (inactive)	12.3 µM (inactive)	6.95 µM (inactive)	9.02 µM (inactive)	14.3 µM (inactive)	10.5 µM (inactive)	1.96 µM (inactive)	10.1 µM (inactive)	6.46 µM (inactive)	3.12 µM (inactive)	9.02 µM (inactive)
CCC(C)NC(=S)N/N=C(\C)c1ccccn1 (configuration not stated)	< 0.01	0.0348 µM (active)	< 0.01 µM (active)	0.0372 µM (active)	0.0543 µM (active)	0.824 µM (active)	0.102 µM (active)	0.126 µM (active)	< 0.01 µM (active)	1.27 µM (inactive)	0.188 µM (active)	< 0.0132 µM (active)	< 0.01 µM (active)	< 0.01 µM (active)	0.142 µM (active)	< 0.01 µM (active)	1.83 µM (inactive)	0.15 µM (active)	–	0.906 µM (active)
NCCCCNCCCN1CCOC1=O	> 100	> 100 µM (inactive)	> 100 µM (inactive)	> 100 µM (inactive)	> 100 µM (inactive)	> 100 µM (inactive)	> 100 µM (inactive)	> 100 µM (inactive)	–	> 100 µM (inactive)	> 100 µM (inactive)	> 100 µM (inactive)	> 100 µM (inactive)	> 100 µM (inactive)	> 100 µM (inactive)	> 100 µM (inactive)	> 100 µM (inactive)	> 100 µM (inactive)	> 100 µM (inactive)	> 100 µM (inactive)
O=C(c1cccs1)c1nccc2c1cnc1ccccc12	> 100	28.7 µM (inactive)	–	> 100 µM (inactive)	> 100 µM (inactive)	> 100 µM (inactive)	> 100 µM (inactive)	31.4 µM (inactive)	0.0113 µM (active)	> 100 µM (inactive)	> 100 µM (inactive)	> 100 µM (inactive)	> 100 µM (inactive)	> 100 µM (inactive)	> 100 µM (inactive)	> 100 µM (inactive)	> 100 µM (inactive)	> 100 µM (inactive)	–	> 100 µM (inactive)
COC(=O)C1CCC(=O)N1C(c1ccccc1)c1cc(OC)c(OC)c(OC)c1 (configuration not stated)	42.6	> 100 µM (inactive)	63.5 µM (inactive)	43 µM (inactive)	41.3 µM (inactive)	22.3 µM (inactive)	> 100 µM (inactive)	> 100 µM (inactive)	> 100 µM (inactive)	–	> 100 µM (inactive)	46.7 µM (inactive)	55.8 µM (inactive)	> 100 µM (inactive)	55.1 µM (inactive)	53.3 µM (inactive)	61.1 µM (inactive)	43 µM (inactive)	40.2 µM (inactive)	69.5 µM (inactive)
CC(NC(=O)C1CCC(=O)N1)C(=O)N1CCCC1C(N)=O (stereo not drawn) ([pGlu]-Ala-Pro-NH2; configuration not given here)	> 100	> 100 µM (inactive)	> 100 µM (inactive)	> 100 µM (inactive)	> 100 µM (inactive)	> 100 µM (inactive)	> 100 µM (inactive)	> 100 µM (inactive)	> 100 µM (inactive)	–	> 100 µM (inactive)	> 100 µM (inactive)	> 100 µM (inactive)	–	> 100 µM (inactive)	> 100 µM (inactive)	> 100 µM (inactive)	> 100 µM (inactive)	> 100 µM (inactive)	–

Reference: ChEMBL document CHEMBL1201862, “PubChem BioAssay data set” (2004)
